The text below walks through data of patent publication US20240294551A1 (AMGEN INC., priority 2022, published 2024).

SMILES strings stand for the structures. Like-named read-outs stand apart in the source and are kept apart here.

Experiment [1] has as its target His-tagged KRAS G12D protein (Homo sapiens (Human), UniProt P01116, G12D). As to the kind of experiment: KRAS G12D TR-FRET Assay. Type of experiment: binding. The method, then:
Compounds of interest were prepared in a dose-response titration in DMSO, and 80 nL were added via Labcyte Echo to each well of a 384-well plate (Perkin Elmer 6008280). The His-tagged KRAS G12D protein (Amgen) was diluted to 20 nM in Assay Buffer (20 mM HEPES, pH 7.4, 10 mM MgCl2, 50 mM NaCl, 0.1% BSA, 0.01% Tween-20, 10 μM GDP) and 2 μL was added to the appropriate wells of the 384-well plate. The plate was incubated for 30 minutes at room temperature. Biotinylated KRPep-2d substrate (Amgen) was diluted to 20 nM in Assay Buffer and 2 μL was added to all wells and incubated for 1 hour at room temperature. Detection Reagent (0.4 nM LANCE Eu-W1024 Anti-6×His (Perkin Elmer AD0401), 5 nM streptavidin-d2 (Cisbio 610SADLA)) was prepared in Assay Buffer, then 4 μL was added to the plate and incubated for 1 hour at room temperature. Plates were read using PerkinElmer EnVision (ex: 320 nm, em1: 665 nm, em2: 615 nm) and em1/em2 data was used to generate curve fits using a 4-parameter logistic model to calculate IC50 values.
(In general: Time-resolved FRET reads energy transfer from a long-lived donor to a nearby acceptor.)

The target in experiment [2] is GDP-bound KRAS protein (aa 1-169), containing both G12D and C118A amino acid substitutions (Homo sapiens (Human), UniProt P01116, C118A/G12D). The experiment in a line: KRAS G12D Coupled Nucleotide Exchange Assay. Format: biochemical. The protocol:
KRAS G12D Coupled Nucleotide Exchange Assay
Following compound pre-incubation, purified SOS protein (aa 564-1049) and GTP (Roche 10106399001) were added to the assay wells and incubated for an additional 30 min. To determine the extent of inhibition of SOS-mediated nucleotide exchange, purified GST-tagged cRAF (aa 1-149), nickel chelate AlphaLISA acceptor beads (PerkinElmer AL108R), and AlphaScreen glutathione donor beads (PerkinElmer 6765302) were added to the assay wells and incubated for 10 minutes. The assay plates were then read on a PerkinElmer EnVision Multilabel Reader, using AlphaScreen® technology, and data were analyzed using a 4-parameter logistic model to calculate IC50 values.

Setting [3] is: read-out: KRAS G12D Binding IC50.
[4] abbreviates: read-out: KRAS G12D Coupled Exchange IC50.
Where [5] appears, read: TR-FRET, read-out: KRAS G12D Binding.
Where [6] appears, read: 2 hours compound pre-incubation, read-out: KRAS G12D Coupled Exchange.

Chain of GDP-bound KRAS protein (aa 1-169), containing both G12D and C118A amino acid substitutions (P01116 other isoform, or with tags, fused parts or gaps G12D/C118A): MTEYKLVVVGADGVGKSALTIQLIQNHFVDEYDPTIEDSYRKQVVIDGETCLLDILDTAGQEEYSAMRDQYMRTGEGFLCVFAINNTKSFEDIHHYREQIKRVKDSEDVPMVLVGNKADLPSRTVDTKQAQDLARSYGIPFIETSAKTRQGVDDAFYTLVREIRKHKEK
Chain of His-tagged KRAS G12D protein (P01116 other isoform, or with tags, fused parts or gaps G12D): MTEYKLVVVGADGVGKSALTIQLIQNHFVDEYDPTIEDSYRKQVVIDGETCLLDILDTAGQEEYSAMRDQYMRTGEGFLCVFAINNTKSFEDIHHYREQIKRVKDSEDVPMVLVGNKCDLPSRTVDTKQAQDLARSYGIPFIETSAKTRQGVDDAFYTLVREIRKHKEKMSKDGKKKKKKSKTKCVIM

On to `Cc1cc2[nH]ncc2c2c1CCCCC(=O)N1CC3CCN(CC3C1)c1nc(OC[C@@]34CCCN3C[C@H](F)C4)nc3c(F)c-2ncc13` (mixture of isomers) [Example 57], for which the IC50 was determined as 221 nM in experiment [1] (setting [3]) and 194 nM in experiment [2] (setting [4]).
For the compound `CN1C(=O)CCCCc2c(Cl)cc3[nH]ncc3c2-c2ncc3c(nc(OC[C@@]45CCCN4C[C@H](F)C5)nc3c2F)N2CCOCC1C2` (mixture of isomers) [Example 64], the IC50 in experiment [1] (setting [3]) is 98 nM; in experiment [2] (setting [4]), 81 nM.
As for `Cc1cc2[nH]ncc2c2c1CCCCC(=O)OC1CN(CC3(CC3)C1)c1nc(OC[C@@]34CCCN3C[C@H](F)C4)nc3c(F)c-2ncc13` (mixture of isomers) [Example 80, (17′R)-30′-fluoro-24′-(((2R,7aS)-2-fluorotetrahydro-1H-pyrrolo[1,2-a]pyrrol-7a(5H)-yl)methoxy)-9′-methyl-16′-oxa-5′,6′,21′,23′,25′,29′-hexaazaspiro[cyclopropane-1,19′-hexacyclo[24.3.1.1~17,21~.0~2,10~.0~3,7~.0~22,27~]hentriacontane]-1′(30′),2′,4′,7′,9′,22′,24′,26′,28′-nonaen-15′-one], the values for the IC50 in experiment [1] (setting [3]) and in experiment [2] (setting [4]) were 55 nM and 47 nM, respectively.
The matching figures for `Cc1cc2[nH]ncc2c2c1CCCCC(=O)OC1CN(CC(F)(F)C1)c1nc(OC[C@@]34CCCN3C[C@H](F)C4)nc3c(F)c-2ncc13` (mixture of isomers) [Example 81]: 279 nM and 212 nM.
Consider `Cc1cc2[nH]ncc2c2c1CCC(=O)OCCC1CCCN(C1)c1nc(OC[C@@]34CCCN3C[C@H](F)C4)nc3c(F)c-2ncc13` (mixture of isomers) [Example 107], for which the IC50 was found to be 70 nM in experiment [1] (setting [3]) and 42 nM in experiment [2] (setting [4]).
For `[O-][S+]1CCCCc2c(Cl)cc3[nH]ncc3c2-c2ncc3c(nc(OC[C@@]45CCCN4C[C@H](F)C5)nc3c2F)N2CCC[C@H](C2)C1` (mixture of isomers) [Example 144], the IC50 in experiment [1] (setting [3]) is 146 nM; in experiment [2] (setting [4]), 79 nM.
For the compound `O[C@H]1C[C@@H]2CN(C1)c1nc(OC[C@@]34CCCN3C[C@H](F)C4)nc3c(F)c(ncc13)-c1c(c(Cl)cc3[nH]ncc13)CCCc1nc2no1` (mixture of isomers) [Example 377], the IC50 in experiment [1] (setting [5]) amounted to 5 nM; in experiment [2] (setting [6]), 2 nM.
As for `Cc1cc2[nH]ncc2c2c1CCCCC(=O)OC1CC[C@@H]3CC[C@H]1N3c1nc(OC[C@@]34CCCN3C[C@H](F)C4)nc3c(F)c-2ncc13` (racemic) [Example 86], the results for the IC50 in experiment [1] (setting [3]) and in experiment [2] (setting [4]) were 61 nM and 57 nM, respectively.
On to `O=C1CCCCc2c(Cl)cc3[nH]ncc3c2-c2ncc3c(nc(OC[C@@]45CCCN4C[C@H](F)C5)nc3c2F)N2C[C@H](O)C[C@@H](C2)N1` (racemic) [Example 276, (17S,19R)-9-chloro-30-fluoro-24-(((2R,7aS)-2-fluorotetrahydro-1H-pyrrolo[1,2-a]pyrrol-7a(5H)-yl)methoxy)-19-hydroxy-5,6,16,21,23,25,29-heptaazahexacyclo[24.3.1.1~17,21~.0~2,10~.0~3,7~.0~22,27~]hentriaconta-1(30),2,4,7,9,22,24,26,28-nonaen-15-one], for which the IC50 in experiment [1] (setting [3]) came to 498 nM; in experiment [2] (setting [4]), 153 nM.
For `Cc1cc2[nH]ncc2c2c1[C@@H]1C[C@@H]1CCOC[C@H]1CN(CCO1)c1nc(OC[C@@]34CCCN3C[C@H](F)C4)nc3c(F)c-2ncc13` (single isomer, unassigned) [Example 225], the IC50 in experiment [1] (setting [3]) is 9620 nM; in experiment [2] (setting [4]), 4770 nM.
`Fc1c2ncc3c(nc(OC[C@@]45CCCN4C[C@H](F)C5)nc13)N1CCO[C@]3(C1)C[C@H](C3)OCCCCc1c(Cl)cc3[nH]ncc3c1-2` (single isomer, unassigned) [Example 262]: the figures for the IC50 in experiment [1] (setting [3]) and in experiment [2] (setting [4]) were 3260 nM and 2420 nM, respectively.
On to `Cc1cc2[nH]ncc2c2c1CCOC(=O)O[C@H]1C[C@@]3(CCCN(C3)c3nc(OC[C@@H]4CCCN4C)nc4c(F)c-2ncc34)C1` (single isomer, unassigned) [Example 325], for which the IC50 in experiment [1] (setting [3]) amounted to 99 nM; in experiment [2] (setting [4]) it was 65 nM.
On to `O=C1CCCCc2c(Cl)cc3[nH]ncc3c2-c2ncc3c(nc(OC[C@@]45CCCN4C[C@H](F)C5)nc3c2F)N2CC[C@H]3[C@@H](C2)N1CC3(F)F` (single isomer, unassigned) [Example 402], for which the IC50 amounted to 97 nM in experiment [1] (setting [5]) and 46 nM in experiment [2] (setting [6]).
With `OC1c2ncc(o2)CCc2c(Cl)cc3[nH]ncc3c2-c2ncc3c(nc(OC[C@@]45CCCN4C[C@H](F)C5)nc3c2F)N2CCO[C@@H]1C2` (stereo in doubt) [Example 395, (17R,18R)-9-chloro-31-fluoro-25-(((2R,7aS)-2-fluorotetrahydro-1H-pyrrolo[1,2-a]pyrrol-7a(5H)-yl)methoxy)-19,33-dioxa-5,6,15,22,24,26,30-heptaazaheptacyclo[25.3.1.1~13,16~.1~18,22~.0~2,10~.0~3,7~.0~23,28~]tritriaconta-1(31),2,4,7,9,13,15,23,25,27,29-undecaen-17-ol], the IC50 is 1170 nM in experiment [1] (setting [5]) and 198 nM in experiment [2] (setting [6]).
Regarding `COc1nc2c3cnc(c(F)c3n1)-c1cc(O)cc3ccc(F)c(c13)CCCC(=O)N[C@]1(C)CCCN2C1` [Example 6, (15R)-22,31-Difluoro-27-hydroxy-8-methoxy-15-methyl-3,7,9,11,16-pentaazahexacyclo[19.7.1.1˜2,6˜.1˜11,15˜.0˜5,10˜.0˜25,29˜]hentriaconta-1(28),2(31),3,5,7,9,21,23,25(29),26-decaen-17-one bis(2,2,2-trifluoroacetate)], the results for the IC50 in experiment [1] (setting [3]) and in experiment [2] (setting [4]) were 154 nM and 125 nM, respectively.
For the compound `O=C1CCCCc2cccc3cc(O)cc(c23)-c2ncc3c(nc(OC[C@@]45CCCN4C[C@H](F)C5)nc3c2F)N2CCCN1CC2` [Example 9, 32-Fluoro-4-(((2R,7aS)-2-fluorotetrahydro-1H-pyrrolo[1,2-a]pyrrol-7a(5H)-yl)methoxy)-13-hydroxy-1,3,5,9,25-pentaazahexacyclo[23.3.2.1˜6,10˜.1˜11,15˜.0˜2,7˜.0˜19,31˜]dotriaconta-2,4,6(32),7,9,11(31),12,14,16,18-decaen-24-one bis(2,2,2-trifluoroacetate)], the results for the IC50 in experiment [1] (setting [3]) and in experiment [2] (setting [4]) were 302 nM and 292 nM, respectively.
As to `Cc1nc2c3cnc(c(F)c3n1)-c1cc(O)cc3ccc(F)c(c13)CCCC(=O)N[C@]1(C)CCCN2C1.O=C(O)C(F)(F)F` [Example 14, (15R)-22,31-Difluoro-27-hydroxy-8,15-dimethyl-3,7,9,11,16-pentaazahexacyclo[19.7.1.1˜2,6˜.1˜11,15˜.0˜5,10˜.0˜25,29˜]hentriaconta-1(28),2(31),3,5,7,9,21,23,25(29),26-decaen-17-one 2,2,2-trifluoroacetate], the IC50 in experiment [1] (setting [3]) was found to be 344 nM; in experiment [2] (setting [4]) it was 296 nM.
As for `Cc1cc2[nH]ncc2c2c1CCCCCC(=O)N[C@]1(C)CCCN(C1)c1nc(OC[C@@]34CCCN3C[C@H](F)C4)nc3c(F)c-2ncc13` [Example 21, (18R)-31-Fluoro-25-(((2R,7aS)-2-fluorotetrahydro-1H-pyrrolo[1,2-a]pyrrol-7a(5H)-yl)methoxy)-9,18-dimethyl-5,6,17,22,24,26,30-heptaazahexacyclo[25.3.1.1˜18,22˜0.0˜2,10˜0.0˜3,7˜0.0˜23,28˜]dotriaconta-1(31),2,4,7,9,23,25,27,29-nonaen-16-one], the IC50 in experiment [1] (setting [3]) and in experiment [2] (setting [4]) was 43 nM in each case.
As for `[2H]C([2H])([2H])[C@]12COCCN(C1)c1nc(OC[C@@]34CCCN3C[C@H](F)C4)nc3c(F)c(ncc13)-c1c(c(C)cc3[nH]ncc13)CCCOC(=O)O2` [Example 351, (26R)-32-fluoro-4-(((2R,7aS)-2-fluorotetrahydro-1H-pyrrolo[1,2-a]pyrrol-7a(5H)-yl)methoxy)-18-methyl-26-(~2~H_3_)methyl-23,25,28-trioxa-1,3,5,9,14,15-hexaazahexacyclo[24.4.1.1~6,10~.0~2,7~.0~11,19~.0~12,16~]dotriaconta-2,4,6,8,10(32),11,13,16,18-nonaen-24-one], the IC50 in experiment [2] (setting [4]) amounted to 149 nM.
Take `[2H]C([2H])([2H])[C@]12COCCN(C1)c1nc(OC[C@@]34CCCN3C[C@H](F)C4)nc3c(F)c(ncc13)-c1c(c(Cl)cc3[nH]ncc13)CCCOC(=O)O2` [Example 354, (26R)-18-chloro-32-fluoro-4-(((2R,7aS)-2-fluorotetrahydro-1H-pyrrolo[1,2-a]pyrrol-7a(5H)-yl)methoxy)-26-(~2~H_3_)methyl-23,25,28-trioxa-1,3,5,9,14,15-hexaazahexacyclo[24.4.1.1~6,10~.0~2,7~.0~11,19~.0~12,16~]dotriaconta-2,4,6(32),7,9,11,13,16,18-nonaen-24-one]: the IC50 in experiment [2] (setting [4]) worked out at 531 nM.
